These results are taken from patent publication US9840488B2, “Carbon monoxide releasing molecules and associated methods” (Utah State University, priority 2015, dated 2017).

Data set [1] is classed as physicochemical. Particulars: for quantum yield Φ of CO-release reaction / eq. CO released: aerobic CH3CN; for eq. CO released: average of three trials. The procedure:
^1H and ^13C{^1H} NMR spectra (in ppm) were collected using JEOL ECX-300 MHz spectrometer and are referenced to the residual solvent peak in CDCl3 (^1H: 7.26 (singlet) ppm; ^13C 77.16 (singlet) ppm) or DMSO-d6 (^1H: 2.50 ppm (quintet)). J values are given in Hz. IR spectra were collected using a Shimadzu FTIR-8400 as potassium bromide pellets. UV-vis spectra were recorded at ambient temperature using a Hewlett-Packard 8453A diode array spectrophotometer. Fluorescence emission spectra were collected using a Shimadzu RF-530XPC spectrometer in the range of 400-800 nm, with the excitation wavelength corresponding to the absorption maxima of the molecules. The excitation and emission slit widths were set at 1.5 nm for all molecules. Mass spectral data was collected at the Mass Spectrometry Facility, University of California, Riverside. ESI/APCI mass spectra were recorded on an Agilent LCTOF (2006) with a Windows XP based operating system. Elemental analyses were performed by Atlantic Microlab, Inc., Norcross, Ga., using a PE2400 automatic analyzer or at Robertson Microlit Laboratories, Ledgewood, N.J. using a Perkin Elmer CHN Analyzer Model 2400, Series II. […] Quantum yields were determined using potassium ferrioxalate or potassium reinekate as standards to measure photon flux.^[36] Carbon monoxide was quantified as previously described.^[37] […]
A solution of 5 in CD3CN (˜3 mM) was prepared in air under minimal red light and placed in an NMR tube. The NMR tube was then covered with foil, placed in a photo reactor, and irradiated using 419 nm lamps for 24 hours.
A solution of 5 in CD3CN (˜3 mM) was prepared under N2 in a glove box and placed in an NMR tube. The NMR tube was then placed in a photo reactor and irradiated using 419 nm lamps for 24 hours. […]

In data set [2] the test system is A549 human adenocarcinoma cells. Put plainly: MTT cell viability assay, A549 cells. The data set is classed as cell-based. How it is done: (§1) Jurkat (JM) cells were maintained as previously described by Shorey et al.^[39] A549 human adenocarcinoma cells (ATCC, Manassas, Va.) cells were grown in DMEM/Ham's F-12 1:1 mixture medium supplemented with 10% charcoal-stripped, heat-inactivated fetal bovine serum (FBS; Caisson Laboratories, Logan, Utah) in a humidified incubator at 37° C. with 5% CO2. Cytotoxicity was determined by the colorimetric MTT [3-(4,5-dimethyl-2-thiazolyl)-2,5-diphenyl-2H-tetrazoluim bromide] assay as previously describe.^[40] Briefly, 2.1×10^3 cells/ml for A549 cells or 1×10^5 cells/ml for Jurkat cells. Test compounds were prepared in DMSO, then added to culture media for a maximum final DMSO concentration not greater than 0.1% (v/v). After addition of test compounds at concentrations ranging from 80 nM to 100 μM, cells were incubated for 24 h in the dark, then treated with MTT to assess cell viability as outlined previously.^[40] All experiments were independently replicated three times, and each experimental treatment was performed in triplicate.
A general note: Tetrazolium assays rely on reduction of a dye to a coloured formazan, in cell work by metabolically active cells.

Data set [3] deals with T1, bovine serum albumin (BSA) (Bos taurus, UniProt P02769). Put plainly: BSA binding by fluorescence quenching, competitive binding and docking.
T1 sequence (P02769 25-607): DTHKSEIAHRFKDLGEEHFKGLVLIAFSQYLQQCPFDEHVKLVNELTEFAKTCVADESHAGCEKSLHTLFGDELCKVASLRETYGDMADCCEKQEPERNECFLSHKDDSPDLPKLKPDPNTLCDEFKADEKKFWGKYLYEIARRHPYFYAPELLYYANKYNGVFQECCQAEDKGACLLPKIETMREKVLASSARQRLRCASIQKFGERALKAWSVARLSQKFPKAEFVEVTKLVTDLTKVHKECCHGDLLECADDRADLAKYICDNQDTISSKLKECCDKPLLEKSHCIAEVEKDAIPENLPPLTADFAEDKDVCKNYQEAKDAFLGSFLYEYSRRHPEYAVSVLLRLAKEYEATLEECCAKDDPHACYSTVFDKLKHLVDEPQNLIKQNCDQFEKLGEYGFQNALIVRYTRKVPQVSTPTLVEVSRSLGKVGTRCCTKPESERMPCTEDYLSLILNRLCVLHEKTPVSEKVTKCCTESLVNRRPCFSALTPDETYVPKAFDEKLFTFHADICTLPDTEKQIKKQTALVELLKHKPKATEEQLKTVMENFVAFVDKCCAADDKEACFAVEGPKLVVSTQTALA
The test system of another data set is S. aureus (ATCC 25923). Put plainly: Minimum inhibitory concentration, blue light vs dark. The data set is classed as cell-based. Also on record: key to Minimum inhibitory concentration (MIC): †: No inhibitory effect against bacterial strain.
Data set [4] deals with S. aureus (ATCC 33591-MRSA). The data set is described as above. The data set is classed as cell-based. Also on record: key to Minimum inhibitory concentration (MIC): †: No inhibitory effect against bacterial strain.
The test system of another data set is Jurkat (JM) cells. Put plainly: MTT cell viability assay, Jurkat cells. The data set is classed as cell-based, human. How it is done:
as §1

The test system of the next data set is E. coli (ATCC 25922). Put plainly: Minimum inhibitory concentration, blue light vs dark. The data set is classed as cell-based. On the set-up: key to Minimum inhibitory concentration (MIC): †: No inhibitory effect against bacterial strain.
The subject of another data set is A549 cells. Briefly: Cellular uptake by fluorescence microscopy. The data set is classed as cell-based, human. How it is done:
A549 cells were maintained in culture as described above, then seeded into seeded into Millicell E-Z-Slide culture chambers (EMD Millipore, Billerica, Mass.) at an initial density of 7.5×10^4 cells/cm^2 and allowed to adhere to the chamber slides for 24 hr. The cells were then treated for 1 hr with the nuclear dye Hoechst 33342 (0.5% v/v) for 10 min, followed by three washes with plain culture media to remove residual dye. All of incubation and wash steps described below were performed in the dark with minimal light exposure. A 100 mM stock solution of compound 5 was prepared in DMSO and then diluted to a working concentration of 2 mM in culture media (DMEM/Ham's F-12). The compound 5 working stock was diluted again to a final concentration of 50 μM in the culture chamber media, and the cells were incubated for 1 hr. The culture chamber was then gently washed thrice with plain culture media. Cells were fixed with a 1:10 (v/v) solution of formaldehyde fixative (Immunochemistry Technologies, Bloomington, Minn.) and culture media for 5 min, then washed twice with plain culture media. Finally, cells were imaged using a Zeiss Axio Observer inverted microscope (Carl Zeiss Microscopy, Thornwood, N.Y.) equipped with fluorescence detection. Images were acquired using a 10× objective with excitation λ of 450-490 nm (BP 470/40 filter) and emission λ of 500-550 nm (BP 525/50 filter) for detection of compound 5 in A549 cells following 30 sec, 3 min or 10 min exposure to visible light. Also, for localization of the Hoechst dye, a single fluorescence image was acquired at excitation λ at 365 nm; emission λ of 420-470 nm (BP 445/50 filter). Acquired images were universally adjusted to enhance contrast levels (same settings for all acquired images for each detection channel) using Adobe Photoshop CS6 (Adobe, San Jose, Calif.).

Data set [5] is described as follows: Solubility and solution stability.
In data set [6] the target is T1, bovine serum albumin (BSA). The conditions noted are these: literature value, cited from earlier work.

≈ marks a conversion by molar mass, not a printed value. Entries after “also recorded” stand apart in the source; their conditions may differ. Read-outs that look alike come from different tables or passages of the source.

By IC50 is commonly meant the concentration that inhibits the measured activity by half. The term MIC denotes the lowest concentration found to suppress growth. One may read the melting point as the temperature, or range, at which the solid turns liquid.

Regarding “3-acetate-2-phenyl-benzo[g]chromen-4-one [Compound 12]”, the “stability to visible light relative to 5” value in [1] is “significantly more stable”.

Take `O=c1c(O)c(-c2ccccc2)oc2ccccc12` [3-hydroxyflavone, reference compound]: the “eq. CO generated” value in [1] (photoinduced reaction with O2, λirr=300 nm) was found to be 0.95 eq.

As for `O=c1c(O)c(-c2ccccc2)oc2cc3ccccc3cc12` [Compound 5, 3-Hydroxy-2-phenyl-benzo[g]chromen-4-one], the melting point was in the range of 208 to 210 °C. The “toxicity by MTT cell viability assay” value in data set [2] is “minimal toxicity”. The compound also gave an IC50 in data set [2] (Homo sapiens, 24 h in the dark, MTT) of 41.5 µM. For the same compound, the “binding site on BSA” value in data set [3] (competitive binding with warfarin and ibuprofen, AutoDock Vina docking) is reported as “site 1 (subdomain II A)”. The “binding affinity to BSA” value in data set [3] (fluorescence quenching, single binding site) was determined as 3200 M⁻¹. Further, in the data set on S. aureus (ATCC 25923) (Dark Conditions), the “Minimum inhibitory concentration (MIC)” value was “†”. In the data set on S. aureus (ATCC 25923) (Staphylococcus aureus, ATCC25923, Light Conditions (blue light)), this compound displayed an MIC of 39.4 µg/mL (≈ 137 µM). Besides, in [4] (Dark Conditions), the “Minimum inhibitory concentration (MIC)” value is “†”. In [4] (Staphylococcus aureus, Light Conditions (blue light)), this compound returned an MIC of 55.5 µg/mL (≈ 193 µM). Also, the “toxicity by MTT cell viability assay” value in the data set with Jurkat (JM) cells is “minimal toxicity”. In addition, in data set [1] (CD3CN in air, tube covered with foil, 419 nm lamps, 24 hours, 1H NMR), the dark control reaction entry is reported as “no reaction had occurred”. The anaerobic control reaction result in data set [1] (CD3CN under N2, 419 nm lamps, 24 hours, 1H NMR) is recorded as “no reaction had occurred”. In data set [1] (419 nm irradiation), the “quantum yield Φ of CO-release reaction” value is on record as 0.007(3) and the “eq. CO released” value was 0.96(2) eq. Further, the “decrease in the rate of light induced CO-release on binding to BSA” value in data set [1] (compound bound to BSA) was “two-fold”. The “photoinduced CO-release reaction in other solvents” value in data set [1] (methanol and 1:1 H2O:DMSO, 1H NMR and GC head space gas analysis) was “same reaction occurs”. Also, the “Minimum inhibitory concentration (MIC)” value with E. coli (ATCC 25922) (Dark Conditions) is given as “†”. Besides, 27.8 µg/mL (≈ 96.4 µM) was the least that counted as inhibitory in the data set on E. coli (ATCC 25922) (Escherichia coli, ATCC25922, Light Conditions (blue light)) (MIC). Also, in the data set on A549 cells (50 μM, 1 hr incubation), the “cellular uptake / cell permeability” value was “cell permeable; also recorded: taken up by almost all cells”. Besides, in the data set on A549 cells (1 hr incubation), the intracellular localization entry is listed as “localized primarily to the cytoplasm”. In addition, the “loss of green fluorescence in cells on exposure to visible light” value in the data set with A549 cells (ten minutes visible light) is “complete loss”. Besides, the “solubility in aqueous DMSO” value in data set [5] (1:1 H2O:DMSO, 0.1% DMSO/RPMI cell culture media) is “soluble”. Also, the “solubility in organic solvents” value in data set [5] (CH3CN, CH2Cl2, CHCl3, DMSO) is recorded as “readily soluble”. Further, the “solution stability in the presence of ambient O2” value in data set [5] (acetonitrile, 1:1 DMSO:H2O, or 0.1% DMSO:cell culture media (RPMI-1640; pH=7.4), protected from light) was more than 2 weeks.

For `O=C(Oc1cc2ccccc2cc1C(=O)O)c1ccccc1` [Compound 6, 3-(benzoyloxy)-2-naphthoic acid], the “toxicity by MTT cell viability assay” value (in data set [2]; in the data set on Jurkat (JM) cells) was “completely non-toxic” in each case.

The compound `CCN(CC)c1ccc(-c2oc3cc4ccccc4cc3c(=O)c2O)cc1` [Compound 7, 2-(4-(diethylamino)phenyl)-3-hydroxy-4H-benzo[g]chromen-4-one] had a melting point of 191 to 192 °C. In addition, in data set [1] (419 nm irradiation), the “quantum yield Φ of CO-release reaction” value is listed as 0.006(1) and the “eq. CO released” value is 0.99(1) eq.

Regarding `Oc1c(-c2ccccc2)oc2cc3ccccc3cc2c1=S` [Compound 8, 3-Hydroxy-2-phenyl-4H-benzo[g]chromene-4-thione], in [1] (419 nm irradiation), the “quantum yield Φ of CO-release reaction” value is recorded as 0.426(3) and the “eq. CO released” value is 1.01(1) eq.

On to `CCN(CC)c1ccc(-c2oc3cc4ccccc4cc3c(=S)c2O)cc1` [Compound 9, 2-(4-(diethylamino)phenyl)-3-hydroxy-4H-benzo[g]chromene-4-thione], for which, in data set [1] (>546 nm irradiation), the “quantum yield Φ of CO-release reaction” value is given as 0.20(1) and the “eq. CO released” value is listed as 1.01(1) eq.

Take `COc1cccc2c1C(=O)c1c(O)c3c(c(O)c1C2=O)C[C@@](O)(C(=O)CO)C[C@@H]3O[C@H]1C[C@H](N)[C@H](O)[C@H](C)O1` [doxorubicin]: the “binding affinity to BSA” value in data set [6] is 7300 M⁻¹.

On to `O=c1c(O)c(-c2ccc(O)c(O)c2)oc2cc(O)cc(O)c12` [quercetin], for which the “binding affinity to BSA” value in data set [6] (unit not given) was 3.65×10^7.
